Measurements as given in patent US11390606B2, “Pyridazinone compounds and uses thereof” (Edgewise Therapeutics, Inc., priority 2018, dated 2022).

molecular target: T1, skeletal myofibrils (Rabbit Psoas), myosin ATPase activity; assay: Skeletal Myofibril ATPase Assay; format: biochemical; settings: skeletal myofibrils (Rabbit Psoas 0.25 mg/mL), PK/LDH-coupled NADH absorbance at 340 nm
T1 construct: Rabbit Psoas Prep 11 (0.25 mg/mL)
Method in brief: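 PK-LDH coupled assay: ADP from myofibril ATPase drives NADH oxidation, read as A340 every 1.5-2 min over 45 min; rate taken as max−min absorbance. Normalized to 1% DMSO vehicle (100%) and fitted to a four-parameter logistic for IC50, bottom constrained ≥0. Buffer pH 7.0 (PIPES/CaCl2/EGTA).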

SMILES	IC50
O=c1ccc(-c2ccc(F)cc2)nn1Cc1ccc(F)cc1 [Compound 244, 2-(4-fluorobenzyl)-6-(4-fluorophenyl)pyridazin-3(2H)-one]	10 to 100 µM
O=c1ccc(-c2ccc(F)cc2)nn1Cc1ccc(Cl)cc1 [Compound 300, 2-(4-chlorobenzyl)-6-(4-fluorophenyl)pyridazin-3(2H)-one]	< 10 µM
Cc1ccc(-c2ccc(=O)n(Cc3ccc(Cl)cc3)n2)cc1 [Compound 301, 2-(4-chlorobenzyl)-6-(p-tolyl)pyridazin-3(2H)-one]	< 10 µM
O=c1ccc(-c2ccc(Cl)cc2)nn1Cc1ccccc1 [Compound 302, 2-benzyl-6-(4-chlorophenyl)pyridazin-3(2H)-one]	< 10 µM
O=c1ccc(-c2ccc(Cl)cc2)nn1Cc1ccc(Cl)cc1 [Compound 303, 2-(4-chlorobenzyl)-6-(4-chlorophenyl)pyridazin-3(2H)-one]	< 10 µM
O=c1ccc(-c2ccc(Cl)nc2)nn1Cc1ccc(Cl)cc1 [Compound 304, 2-(4-chlorobenzyl)-6-(6-chloropyridin-3-yl)pyridazin-3(2H)-one]	< 10 µM
O=c1ccc(-c2ccc(Cl)cc2)nn1Cc1ccc(C(F)(F)F)cc1 [Compound 305, 6-(4-chlorophenyl)-2-(4-(trifluoromethyl)benzyl)pyridazin-3(2H)-one]	> 100 µM
O=c1ccc(-c2ccc(Cl)cc2)nn1Cc1ccc(F)cc1 [Compound 306, 6-(4-chlorophenyl)-2-(4-fluorobenzyl)pyridazin-3(2H)-one]	< 10 µM
O=c1ccc(-c2ccc(Cl)cc2)nn1Cc1cccc(Cl)c1 [Compound 307, 2-(3-chlorobenzyl)-6-(4-chlorophenyl)pyridazin-3(2H)-one]	< 10 µM
Cc1ccccc1Cn1nc(-c2ccc(Cl)cc2)ccc1=O [Compound 308, 6-(4-chlorophenyl)-2-(2-methylbenzyl)pyridazin-3(2H)-one]	< 10 µM
O=c1ccc(-c2ccc(Cl)cc2)nn1Cc1ccccc1F [Compound 309, 6-(4-chlorophenyl)-2-(2-fluorobenzyl)pyridazin-3(2H)-one]	< 10 µM
O=c1ccc(-c2ccc(Cl)cc2)nn1Cc1ccccc1Cl [Compound 310, 2-(2-chlorobenzyl)-6-(4-chlorophenyl)pyridazin-3(2H)-one]	< 10 µM
Cc1ccc(Cn2nc(-c3ccc(Cl)cc3)ccc2=O)cc1 [Compound 311, 6-(4-chlorophenyl)-2-(4-methylbenzyl)pyridazin-3(2H)-one]	< 10 µM
CCCc1ccc(-c2ccc(=O)n(Cc3ccc(Cl)cc3)n2)cc1 [Compound 312, 2-(4-chlorobenzyl)-6-(4-propylphenyl)pyridazin-3(2H)-one]	< 10 µM
CCc1ccc(-c2ccc(=O)n(Cc3ccc(Cl)cc3)n2)cc1 [Compound 313, 2-(4-chlorobenzyl)-6-(4-ethylphenyl)pyridazin-3(2H)-one]	< 10 µM
Cc1cccc(Cn2nc(-c3ccc(Cl)cc3)ccc2=O)c1 [Compound 314, 6-(4-chlorophenyl)-2-(3-methylbenzyl)pyridazin-3(2H)-one]	< 10 µM
C[C@@H](c1ccccc1)n1nc(-c2ccc(Cl)cc2)ccc1=O [Compound 315, (S)-6-(4-chlorophenyl)-2-(1-phenylethyl)pyridazin-3(2H)-one]	> 100 µM
COc1cc(F)ccc1-c1ccc(=O)n(Cc2ccc(Cl)cc2)n1 [Compound 316, 2-(4-chlorobenzyl)-6-(4-fluoro-2-methoxyphenyl)pyridazin-3(2H)-one]	> 100 µM
O=c1ccc(-c2ccc(Cl)cc2)nn1Cc1cccc(F)c1 [Compound 317, 6-(4-chlorophenyl)-2-(3-fluorobenzyl)pyridazin-3(2H)-one]	< 10 µM

tested on: embryos from zebrafish model of DMD; assay: not given; settings: Li and Amer, PLoSONE, 2015; cited from earlier work

SMILES	protection of muscles from pathological muscle derangement
Cc1ccc(S(=O)(=O)NCc2ccccc2)cc1 [BTS, N-benzyl-p-tolyl-sulfonamide]	protect muscles from pathological muscle derangement
